Laboratory results from publication PMC11990524, “Design and Synthesis of Novel 6-(Substituted phenyl)-[1,3]dioxolo[4′,5′:4,5]benzo[1,2-d]thiazole Compounds as Tyrosinase Inhibitors: In Vitro and In Vivo Insights” (Molecules, 2025).

What was measured:
[1] = ABTS radical scavenging assay; conditions: 100 μM
Experimental: The ABTS^+ radical solution was obtained by mixing ABTS and potassium persulfate, an oxidizing reagent, and test samples (1–13 and Trolox [positive control]; final concentration: 100 μM) were added to determine their ABTS^+ radical scavenging ability by measuring the optical density at 732 nm.
To prepare ABTS^•+ stock solution, equal amounts of ABTS (14 mM aqueous solution) and K2S2O8 (4.9 mM aqueous solution) were mixed and stored in the dark at 18 °C for 15 h. The prepared ABTS^•+ solution was diluted in ethanol to adjust the absorbance to 0.7 ± 0.01 at 732 nm. The test samples (Trolox [positive control] and compounds 1–13) were dissolved in a cosolvent of ethanol and DMSO (10:1 [v/v]). The adjusted ABTS^•+ solution (90 μL) and test sample (10 μL) were added to each well of a 96-well plate, and the plate was stored in a dark place at 18 °C for 2 min. The optical density was measured at 732 nm every min for 10 min. The test sample solutions were tested at a final concentration of 100 μM. The percentage of radical scavenging activity was calculated as follows: % Radical scavenging activity = 100 × [(Absc − Abst)/Absc], where Abst and Absc are optical densities of the test sample and control, respectively.

HaCaT cells = assay: Cytotoxicity assay on HaCaT cells (EZ-Cytox); type: cell-based, human; conditions: 1, 2, 5, 10, and 20 μM, 24 h
Experimental: In addition to melanocytes, keratinocytes are the primary cells present in the epidermis. […] Each compound was treated at concentrations of 0, 1, 2, 5, 10, and 20 μM for 24 h, and cell viability was measured using the EZ-Cytox solution.
The effect of compounds 5 and 9 on cell viability of HaCaT and B16F10 cells was assessed using an EZ-Cytox solution (EZ-1000®, DoGenBio, Seoul, Republic of Korea). HaCaT (5 × 10^3 cells/well) and B16F10 (1 × 10^3 cells/well) cells were seeded in a 96-well plate, respectively, and cultured for 24 h under the same conditions as the cell culture. Each well was treated with 5 and 9 at 0, 1, 2, and 5 μM for B16F10 cells and 0, 1, 2, 5, 10, and 20 μM for HaCaT cells. The plates were incubated for 72 h for B16F10 cells and 24 h for HaCaT cells under a CO2 incubator. Each well was treated with the EZ-Cytox solution (10 μL), and the plate was left for 2 h under a CO2 incubator. Well optical density was measured at 450 nm to determine cytotoxicity.

B16F10 cell tyrosinase = biological target: T1, B16F10 cell tyrosinase (Mus musculus, UniProt P11344); assay: In situ cellular tyrosinase activity assay using B16F10 cells; type: cell-based, murine
T1 construct: endogenous in cells; host or cells: B16F10 murine cells, stimulated with α-MSH and IBMX
T1 sequence (P11344 19-533): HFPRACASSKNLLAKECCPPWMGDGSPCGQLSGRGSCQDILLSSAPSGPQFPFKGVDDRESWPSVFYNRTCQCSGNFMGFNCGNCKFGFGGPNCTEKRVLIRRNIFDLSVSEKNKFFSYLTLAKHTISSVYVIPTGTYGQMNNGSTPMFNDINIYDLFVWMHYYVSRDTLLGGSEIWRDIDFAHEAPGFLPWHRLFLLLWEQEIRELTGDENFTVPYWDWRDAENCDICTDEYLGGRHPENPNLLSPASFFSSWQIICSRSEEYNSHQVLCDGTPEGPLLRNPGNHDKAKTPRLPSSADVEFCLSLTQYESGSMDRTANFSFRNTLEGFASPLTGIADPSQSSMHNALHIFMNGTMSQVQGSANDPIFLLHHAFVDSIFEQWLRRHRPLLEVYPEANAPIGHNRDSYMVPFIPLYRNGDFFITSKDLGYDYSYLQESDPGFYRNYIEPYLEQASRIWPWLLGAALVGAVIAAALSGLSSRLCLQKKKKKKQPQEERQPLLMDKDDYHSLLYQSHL
Experimental: After 72 h of incubation, the cells were treated with an excessive amount of L-dopa for 2 h, and then the melanin-stained cells were photographed, and the pigmented areas of the cells were determined using an ATTO CS Analyzer (ATTO, Tokyo, Japan).
B16F10 (3 × 10^3 cells/well) cells in a 24-well plate were incubated for 24 h in a 5% CO2 incubator maintained at 37 °C. […] Stimulators (α-MSH and IBMX; 1 μM and 200 μM, respectively) were exposed to cells 1 h after treatment with the test sample, and the cells were incubated for 72 h in a 5% CO2 incubator. The cells were fixed for 40 min using paraformaldehyde solution (4%) (Sigma-Aldrich, St. Louis, MO, USA), washed with PBS (pH 7.4), and permeabilized for 2 min using Triton X-100 (0.1%). After washing twice with PBS, each well was exposed to L-dopa solution (500 μL; 2 mM). After incubation for 2 h, images of the cells stained with excess melanin were obtained using a camera connected to a microscope (Motic, Hong Kong).

mushroom tyrosinase = mushroom tyrosinase (Agaricus bisporus, UniProt C7FF04); assay: Mushroom tyrosinase inhibitory activity assay (L-dopa or L-tyrosine as substrate); type: biochemical
mushroom tyrosinase, sequence (C7FF04 2-392): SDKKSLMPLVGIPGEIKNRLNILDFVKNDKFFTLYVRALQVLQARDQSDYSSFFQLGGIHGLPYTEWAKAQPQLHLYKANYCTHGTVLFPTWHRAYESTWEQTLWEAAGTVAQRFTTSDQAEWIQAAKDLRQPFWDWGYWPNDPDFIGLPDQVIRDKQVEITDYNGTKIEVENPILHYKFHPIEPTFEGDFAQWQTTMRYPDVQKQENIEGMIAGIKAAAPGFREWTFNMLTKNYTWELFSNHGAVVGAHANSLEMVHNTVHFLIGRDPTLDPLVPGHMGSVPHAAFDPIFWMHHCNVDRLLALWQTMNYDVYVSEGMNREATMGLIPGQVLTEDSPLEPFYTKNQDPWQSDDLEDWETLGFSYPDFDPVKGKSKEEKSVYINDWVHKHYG
Experimental: In the inhibition experiments, L-dopa and L-tyrosine were used as enzyme substrates.
The plate was incubated at 37 °C for 30 min, and absorbance of dopachrome formation was recorded spectrophotometrically at 475 nm using a VersaMax® Elisa (VE) microplate reader (Molecular Devices, San Jose, CA, USA) to determine tyrosinase inhibition activity. A VE microplate reader was used in all subsequent experiments to measure optical density. All experiments were carried out independently three times.

[2] = biological target: T2, B16F10 cellular tyrosinase (Mus musculus, UniProt P11344); assay: Cellular tyrosinase activity assay using B16F10 cells; type: cell-based, murine; conditions: 1, 2, and 5 μM, IBMX 200 μM plus α-MSH 1 μM, 72 h
T2 construct: endogenous in cells; host or cells: B16F10 murine cells, stimulated with α-MSH and IBMX
T2 sequence (P11344 19-533): T1 sequence (P11344 19-533)
Experimental: After 72 h of incubation, the B16F10 cellular tyrosinase inhibitory activity was evaluated by measuring the optical density at 475 nm.
To evaluate the effect of compounds 5 and 9 on cellular tyrosinase activity, B16F10 cells (5000 cells/well) were inoculated in a 6-well plate and cultured for 24 h under the same conditions as the cell culture. […] The plate was incubated in a 5% CO2 incubator maintained at 37 °C for 1 h. Each well was treated with stimulators (1 μM α-MSH [Alomone Labs^TM, Jerusalem, Israel] and 200 μM IBMX [Thermo Fisher, Rockford, IL, USA]) and incubated in a CO2 incubator for 72 h. The cells were rinsed twice with PBS (pH 7.4) and treated with 100 μL lysis buffer solution consisting of Triton X-100 (1%; 5 μL), phosphate buffer (50 mM; pH 6.5; 90 μL), and phenylmethanesulfonyl fluoride (2 mM; 5 μL). The lysates were placed for 30 min at −80 °C. After centrifuging at 10,000 g and 4 °C for 10 min, an aliquot (80 μL) of the supernatants was transferred to each well of a 96-well plate, and 20 μL of L-dopa solution (10 mM) was added to each well. The optical density at 475 nm was recorded every min for 10 min to determine cellular tyrosinase activity.

In the case of `Oc1ccc(-c2nc3cc4c(cc3s2)OCO4)c(O)c1` [Compound 9, 4-([1,3]Dioxolo[4′,5′:4,5]benzo[1,2-d]thiazol-6-yl)benzene-1,3-diol], the “ABTS^+ radical scavenging activity (inhibition rate)” value [1] is reported as 96%, the “cytotoxicity (cell viability)” value (HaCaT cells) is reported as “None of the compounds revealed significant cytotoxicity up to 20 μM” and the “melanin production-inhibitory potency in situ, comparison” value (B16F10 cell tyrosinase; 5 μM) is reported as “greater than that of 5”. The “number of cells strongly stained with melanin (in situ tyrosinase)” value (B16F10 cell tyrosinase; 1, 2, and 5 μM, IBMX plus α-MSH, 72 h, L-dopa 2 h) was “evidently reduced the number of cells strongly stained with melanin”, the “IC50 values regardless of the substrate used (in words)” value (mushroom tyrosinase; L-dopa and L-tyrosine) was “nanomolar” and the inhibition at 2 µM (mushroom tyrosinase; substrate L-dopa, 2.0 μM, read-out: Inhibition (%) measured at 2.0 μM (converted)) was 76.1%. The inhibition at 0.4 µM (mushroom tyrosinase; substrate L-tyrosine, 0.4 μM, read-out: Inhibition (%) measured at 0.4 μM (converted)) was 71.8% and the cellular tyrosinase activity [2] was “significantly decreased the cellular tyrosinase activity”.
